Biological target: human PAD4 (hPAD4) (Homo sapiens (Human), UniProt Q9UM07)
Assay: RFMS Human PAD4 Functional Assay 1
Format: biochemical
Conditions: RFMS assay 1; 5 nM hPAD4, 250 μM BAEE substrate, 50 μM calcium, 37° C.
Method in brief: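 Recombinant hPAD4 (5 nM) was preincubated with compound (top 50 μM, 0.5% DMSO) for 30 min at 37 °C, then reacted with 250 μM BAEE for 90 min at 37 °C in pH 7.5 HEPES buffer with 50 μM calcium and 5 μM TPEN. Product was derivatized with phenyl glyoxal and quantified by RapidFire MS.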

Sequence of human PAD4 (hPAD4) (Q9UM07 whole entry): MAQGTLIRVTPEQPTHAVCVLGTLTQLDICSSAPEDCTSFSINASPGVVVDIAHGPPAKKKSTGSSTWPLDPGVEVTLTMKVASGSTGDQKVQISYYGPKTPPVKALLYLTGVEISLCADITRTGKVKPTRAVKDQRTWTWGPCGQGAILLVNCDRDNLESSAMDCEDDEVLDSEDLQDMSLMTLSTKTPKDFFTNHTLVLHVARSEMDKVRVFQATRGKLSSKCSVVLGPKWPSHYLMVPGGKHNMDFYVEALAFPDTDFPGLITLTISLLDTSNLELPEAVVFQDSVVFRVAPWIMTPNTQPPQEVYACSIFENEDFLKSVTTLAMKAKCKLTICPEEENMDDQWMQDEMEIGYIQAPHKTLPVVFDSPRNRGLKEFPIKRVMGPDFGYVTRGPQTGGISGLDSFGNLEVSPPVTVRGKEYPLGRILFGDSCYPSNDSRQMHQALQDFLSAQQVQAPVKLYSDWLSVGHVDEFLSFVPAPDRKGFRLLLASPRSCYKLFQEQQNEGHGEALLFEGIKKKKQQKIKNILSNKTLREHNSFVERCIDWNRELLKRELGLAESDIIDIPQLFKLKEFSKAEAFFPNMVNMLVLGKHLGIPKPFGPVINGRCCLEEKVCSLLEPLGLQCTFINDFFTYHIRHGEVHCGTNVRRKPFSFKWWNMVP

| Structure (SMILES) | IC50 |
| --- | --- |
| Cc1c(-c2cc3cccc(C4CCN(C(=O)[C@@H](C)O)CC4)c3n2CC2CC2)nn2cc(C(=O)N3CC4CCC3[C@@H]4N)ccc12 (stereo partly drawn) [Example 473, (2R)-1-(4-(2-(6-((7R)-7-Amino-2-azabicyclo[2.2.1]heptane-2-carbonyl)-3-methylpyrazolo[1,5-a]pyridin-2-yl)-1-(cyclopropylmethyl)-1H-indol-7-yl)piperidin-1-yl)-2-hydroxypropan-1-one] | 0.003 µM |
| Cc1c(-c2cc3cccc(C4CCN(C(=O)c5cccs5)CC4)c3n2CC2CC2)nn2cc(C(=O)N3C[C@H](N)C[C@@H](F)C3)ccc12 [Example 474, ((3R,5R)-3-Amino-5-fluoropiperidin-1-yl)(2-(1-(cyclopropylmethyl)-7-(1-(thiophene-2-carbonyl)piperidin-4-yl)-1H-indol-2-yl)-3-methylpyrazolo[1,5-a]pyridin-6-yl)methanone] | 0.07 µM |
| Cc1c(-c2cc3cccc(C4CCN(C(=O)c5cccs5)CC4)c3n2CC2CC2)nn2cc(C(=O)N3CC4CCC3[C@@H]4N)ccc12 (stereo partly drawn) [Example 475, (4-(2-(6-((7R)-7-Amino-2-azabicyclo[2.2.1]heptane-2-carbonyl)-3-methylpyrazolo[1,5-a]pyridin-2-yl)-1-(cyclopropylmethyl)-1H-indol-7-yl)piperidin-1-yl)(thiophen-2-yl)methanone] | 0.02 µM |
| CC(=O)N1CCC(c2cccc3cc(-c4nn5cc(C(=O)N6CC7CCC6[C@@H]7N)ccc5c4C)n(CC4CC4)c23)CC1 (stereo partly drawn) [Example 477, 1-(4-(2-(6-((7R)-7-Amino-2-azabicyclo[2.2.1]heptane-2-carbonyl)-3-methylpyrazolo[1,5-a]pyridin-2-yl)-1-(cyclopropylmethyl)-1H-indol-7-yl)piperidin-1-yl)ethan-1-one] | 0.02 µM |
| COCC(=O)N1CCC(c2cccc3cc(-c4nn5cc(C(=O)N6C[C@H](N)C[C@@H](F)C6)ccc5c4C)n(CC4CC4)c23)CC1 [Example 478, 1-(4-(2-(6-((3R,5R)-3-Amino-5-fluoropiperidine-1-carbonyl)-3-methylpyrazolo[1,5-a]pyridin-2-yl)-1-(cyclopropylmethyl)-1H-indol-7-yl)piperidin-1-yl)-2-methoxyethan-1-one] | 0.13 µM |
| CC(=O)N1CCC(c2cccc3cc(-c4nn5cc(C(=O)N6CCC[C@@H](N)C6)ccc5c4C)n(CC4CC4)c23)CC1 [Example 479, (R)-1-(4-(2-(6-(3-Aminopiperidine-1-carbonyl)-3-methylpyrazolo[1,5-a]pyridin-2-yl)-1-(cyclopropylmethyl)-1H-indol-7-yl)piperidin-1-yl)ethan-1-one] | 0.39 µM |
| COCC(=O)N1CCC(c2cc(F)cc3cc(-c4nn5cc(C(=O)N6CCC[C@@H](N)C6)cc(OC)c5c4C)n(CC4CC4)c23)CC1 [Example 480, (R)-1-(4-(2-(6-(3-aminopiperidine-1-carbonyl)-4-methoxy-3-methylpyrazolo[1,5-a]pyridin-2-yl)-1-(cyclopropylmethyl)-5-fluoro-1H-indol-7-yl)piperidin-1-yl)-2-Methoxyethan-1-one] | 0.14 µM |
| COCC(=O)N1CCC(c2cc(F)cc3cc(-c4nn5cc(C(=O)N6C[C@H](N)C[C@@H](F)C6)cc(OC)c5c4C)n(CC4CC4)c23)CC1 [Example 481, 1-(4-(2-(6-((3R,5R)-3-Amino-5-fluoropiperidine-1-carbonyl)-4-methoxy-3-methylpyrazolo[1,5-a]pyridin-2-yl)-1-(cyclopropylmethyl)-5-fluoro-1H-indol-7-yl)piperidin-1-yl)-2-methoxyethan-1-one] | 0.12 µM |
| COc1cc(C(=O)N2C[C@H](N)C[C@@H](F)C2)cn2nc(-c3cc4cc(F)cc(C5CCN(C(C)=O)CC5)c4n3CC3CC3)c(C)c12 [Example 482, 1-(4-(2-(6-((3R,5R)-3-Amino-5-fluoropiperidine-1-carbonyl)-4-methoxy-3-methylpyrazolo[1,5-a]pyridin-2-yl)-1-(cyclopropylmethyl)-5-fluoro-1H-indol-7-yl)piperidin-1-yl)ethan-1-one] | 0.06 µM |

— patent US12473304B2, “Heterocyclic PAD4 inhibitors” (BRISTOL-MYERS SQUIBB COMPANY, priority 2020, dated 2025)
